For series [1], the target named is Programmed cell death protein 1/Programmed cell death 1 ligand 1 (Homo sapiens, UniProt Q15116+Q9NZQ7). As to the kind of experiment: Inhibition of PD-1/PD-L1 interaction (unknown origin) incubated for 90 min by TR-FRET assay. The format is protein-complex assay.
Series [2] relates to RKO. As to the kind of experiment: AUTAC (autophagy-targeting chimera) activity at PD-L1 in human RKO cells assessed as autophagy-lysosome mediated protein degradation measured after 24 hrs by ECL substrate based Western blotting analysis. The series is classed as cell-based. As to conditions: dose 0.5-2 µM. A general note: In western blotting, separated proteins are transferred to a membrane and probed.

Series [3] concerns RKO. The experiment in a line: AUTAC (autophagy-targeting chimera) activity at PD-L1 in human RKO cells assessed as autophagy-lysosome mediated protein degradation by measuring protein level at 0.5 uM measured after 24 hrs by ECL substrate based Western blotting analysis relative to control. The format is cell-based.
Series [4] relates to RKO. The experiment in a line: AUTAC (autophagy-targeting chimera) activity at PD-L1 in human RKO cells assessed as autophagy-lysosome mediated protein degradation by measuring protein level at 2 uM measured after 24 hrs by ECL substrate based Western blotting analysis relative to control. The series is classed as cell-based.
Series [5] deals with RKO. As to the kind of experiment: AUTAC (autophagy-targeting chimera) activity at PD-L1 in human RKO cells assessed as autophagy-lysosome mediated protein degradation by measuring protein level at 4 uM measured after 24 hrs by ECL substrate based Western blotting analysis relative to control. The series is classed as cell-based.
Series [6] relates to RKO. The experiment in a line: AUTAC (autophagy-targeting chimera) activity at PD-L1 in human RKO cells assessed as autophagy-lysosome mediated protein degradation by measuring reduced PD-L1 level at 0.5 uM incubated for 24 hrs by ECL substrate based Western blotting analysis relative to control. The format is cell-based. More on the design: scale not given: the % may be the effect or the level left.

Series [7] deals with RKO. The experiment in a line: AUTAC (autophagy-targeting chimera) activity at PD-L1 in human RKO cells assessed as autophagy-lysosome mediated protein degradation by measuring reduced PD-L1 level at 1 uM incubated for 24 hrs by ECL substrate based Western blotting analysis relative to control. The format is cell-based. More on the design: scale not given: the % may be the effect or the level left.

Series [8] relates to RKO. The experiment in a line: AUTAC (autophagy-targeting chimera ) activity in autophagy-lysosome mediated PD-L1 degradation in human RKO cells assessed as PD-L1 degradation at 0.5 uM using ECL as substrate incubated for 24 hrs in presence of Cycloheximide by immunoblot analysis. The format is cell-based.
For series [9], the system named is RKO. The experiment in a line: AUTAC (autophagy-targeting chimera ) activity in autophagy-lysosome mediated PD-L1 degradation in human RKO cells assessed as PD-L1 degradation at 0.5 uM using ECL as substrate incubated for 24 hrs in presence of 3-methyladenine by immunoblot analysis. The series is classed as cell-based.
Series [10] relates to RKO. As to the kind of experiment: AUTAC (autophagy-targeting chimera ) activity in autophagy-lysosome mediated PD-L1 degradation in human RKO cells assessed as PD-L1 degradation at 10 uM using ECL as substrate incubated for 24 hrs in presence of pepstainA by immunoblot analysis. The series is classed as cell-based.
Series [11] has as its system RKO. The experiment in a line: AUTAC (autophagy-targeting chimera ) activity in autophagy-lysosome mediated PD-L1 degradation in human RKO cells assessed as PD-L1 degradation at 50 uM using ECL as substrate incubated for 24 hrs in presence of chloroquine by immunoblot analysis. The series is classed as cell-based.
Series [12] relates to RKO. The experiment in a line: Induction of autophagy in human RKO cells assessed as increase LC3II expression at 1 uM incubated for 24 hrs in presence of 3-methyladenine by immunoblot analysis. The format is functional, cell-based.
The subject of series [13] is RKO. The experiment in a line: Induction of autophagosome lysosome fusion in human RKO cells transfected with Ad-mCherry-GFP-LC3B incubated for 24 hrs by inverted fluorescence microscope analysis. The series is classed as functional, cell-based.
The test system of series [14] is CT26. As to the kind of experiment: In vivo antitumor activity against mouse CT26 cells implanted in male BALB/c mouse model assessed reduced tumor growth oral administration once daily. The series is classed as functional, organism-based. As to conditions: dose 30-120 mg/kg.
Series [15] concerns CT26. The experiment in a line: In vivo antitumor activity against mouse CT26 cells implanted in male BALB/c mouse model assessed reduced tumor growth at 60 mg/kg oral administration once daily. The format is functional, organism-based.
Series [16] in a line: Toxicity in male BALB/c mouse model mouse implanted in CT26 cells assessed as body weight loss at 120 mg/kg, po. The format is organism-based. The settings on record: in vivo.
Series [17] in a line: Toxicity in male BALB/c mouse model mouse implanted in CT26 cells assessed as mortality at 120 mg/kg, po. The series is classed as organism-based. As to conditions: in vivo.
Series [18] relates to CT26. As to the kind of experiment: Antitumor immunity against mouse CT26 cells implanted in male BALB/c mouse model assessed as increase infiltration of CD8+ cells at 30 to 120 mg/kg, po. The series is classed as functional, organism-based. The settings on record: dose 30-120 mg/kg.
Series [19] relates to CT26. The experiment in a line: In vivo antitumor activity against mouse CT26 cells implanted in male BALB/c mouse model assessed as decrease PD-L1 in tumor tissue at 120 mg/kg, po incubated for overnight by immunohistochemistry. The series is classed as functional, organism-based.
In series [20] the test system is HepG2. The experiment in a line: Induction of VISTA degradation in human HepG2 cells assessed as decrease in VISTA protein level at 5 uM using ECL as substrate incubated for 1 hrs by immunoblot analysis. The format is cell-based.
In series [21] the test system is RKO. The experiment in a line: Upregulation of autophagy lysosome related Atg9b gene expression in human RKO cells at 5 uM incubated for 24 hrs by qRT-PCR analysis. The format is functional, cell-based. Background: In qPCR the cycle at which signal appears reflects the starting amount.
For series [22], the system named is RKO. The experiment in a line: Upregulation of autophagy lysosome related Lamp1 gene expression in human RKO cells at 5 uM incubated for 24 hrs by qRT-PCR analysis. The format is functional, cell-based.
Series [23] relates to RKO. The experiment in a line: Upregulation of autophagy lysosome related Mitf gene expression in human RKO cells at 5 uM incubated for 24 hrs by qRT-PCR analysis. The format is functional, cell-based.
The subject of series [24] is HepG2. As to the kind of experiment: Induction of VISTA degradation in human HepG2 cells assessed as decrease in VISTA protein level at 5 uM using ECL as substrate incubated for 1 hrs by immunoblot analysis relative to control. The series is classed as cell-based. The arrangement: scale not given: the % may be the effect or the level left.
Series [25] concerns RKO. The experiment in a line: AUTAC (autophagy-targeting chimera) activity at PD-L1 in human RKO cells assessed as autophagy-lysosome mediated protein degradation at 2 uM measured after 24 hrs by ECL substrate based Western blotting analysis. The format is cell-based.
Series [26] has as its system RKO. As to the kind of experiment: AUTAC (autophagy-targeting chimera) activity at PD-L1 in human RKO cells assessed as autophagy-lysosome mediated protein degradation at 1 uM measured after 24 hrs by ECL substrate based Western blotting analysis. The format is cell-based.
For series [27], the system named is RKO. As to the kind of experiment: AUTAC (autophagy-targeting chimera) activity at PD-L1 in human RKO cells assessed as autophagy-lysosome mediated protein degradation at 4 uM measured after 24 hrs by ECL substrate based Western blotting analysis. The format is cell-based.
In series [28] the test system is RKO. As to the kind of experiment: AUTAC (autophagy-targeting chimera) activity at PD-L1 in human RKO cells assessed as autophagy-lysosome mediated protein degradation by measuring protein level at 1 uM measured after 24 hrs by ECL substrate based Western blotting analysis relative to control. The format is cell-based.

The structures appear in SMILES notation. Activity calls are given as the source filed them. The rule behind the calls is not given here. Bounds are passed on as bounds.

One may read the IC50 as the concentration at which inhibition is half-maximal.

Chain of Programmed cell death protein 1/Programmed cell death 1 ligand 1 (Q15116 whole entry): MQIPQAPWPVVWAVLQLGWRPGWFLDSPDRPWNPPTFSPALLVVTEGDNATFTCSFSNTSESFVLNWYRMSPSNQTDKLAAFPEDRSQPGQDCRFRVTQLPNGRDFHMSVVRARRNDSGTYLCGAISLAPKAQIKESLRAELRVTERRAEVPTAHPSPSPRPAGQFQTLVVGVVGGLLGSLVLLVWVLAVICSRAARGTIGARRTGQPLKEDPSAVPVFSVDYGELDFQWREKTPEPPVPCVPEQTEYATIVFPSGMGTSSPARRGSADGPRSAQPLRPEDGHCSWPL
Chain of Programmed cell death protein 1/Programmed cell death 1 ligand 1 (Q9NZQ7 whole entry): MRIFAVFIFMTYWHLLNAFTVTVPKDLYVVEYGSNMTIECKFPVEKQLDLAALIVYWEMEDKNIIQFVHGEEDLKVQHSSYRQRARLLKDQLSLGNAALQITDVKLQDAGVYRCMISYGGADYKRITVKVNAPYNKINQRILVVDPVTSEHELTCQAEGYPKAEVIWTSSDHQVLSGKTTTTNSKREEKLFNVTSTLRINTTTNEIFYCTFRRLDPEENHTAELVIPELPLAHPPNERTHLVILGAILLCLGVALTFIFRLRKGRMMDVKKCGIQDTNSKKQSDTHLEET

With `CNc1cccc(CNCCOCCOCCOCCNCc2cccc(Nc3nnc(-c4cccc(-c5ccccc5)c4C)o3)c2)c1`, the IC50 in series [1] is 22.3 nM. The Activity entry in the series on RKO [2] is “Dose-dependent-effect”; with RKO [3], 93%; in the series on RKO [4] it was 33%; in the series on RKO [5], 28%.
In series [1], `Cc1c(-c2ccccc2)cccc1-c1nnc(Nc2cccc(CNCCOCCOCCOCCOCCOCCNCc3cccc(Nc4nnc(-c5ccccc5)o4)c3)c2)o1` showed a concentration for half-maximal inhibition (IC50) of 23 nM.
With `Cc1c(-c2ccccc2)cccc1-c1nnc(Nc2cccc(CNCCOCCOCCNCc3cccc(Nc4nnc(-c5cccc(-c6ccccc6)c5C)o4)c3)c2)o1`, the IC50 in [1] turned out to be 25.7 nM.
`Cc1c(-c2ccccc2)cccc1-c1nnc(Nc2cccc(CNCCOCCOCCOCCOCCNCc3cccc(Nc4nnc(-c5ccccc5)o4)c3)c2)o1` gave an IC50 in series [1] of 22.8 nM. Further, the Activity entry in the series on RKO [2] is “Dose-dependent-effect”; in the series with RKO [6] it was 70%; with RKO [7] it was 90%; in the series on CT26 [14] it was “Dose-dependent-effect”; in series [16], “Non-toxic”; in series [17], “Non-toxic”. Besides, the outcome with RKO [8], in the series with RKO [9], in the series with RKO [10], in the series with RKO [11], with RKO [12] and with RKO [13] was Active. Besides, the result with CT26 [15], in the series on CT26 [18] and with CT26 [19] was Active.
Turning to `Cc1c(-c2ccccc2)cccc1-c1nnc(Nc2cccc(CNCCOCCOCCOCCOCCNCc3cccc(-c4nc5ccc(-c6ccccc6)c(C)c5[nH]4)c3)c2)o1`, the result with HepG2 [20] was Active.
In the case of `OCCNCc1cccc(Nc2nnc(-c3ccccc3)o2)c1`, the IC50 in [1] was over 1000 nM. For the same compound, the result with RKO [21], with RKO [22] and in the series with RKO [23] was Active.
On to `Cc1c(-c2ccccc2)ccc2nc(-c3cccc(CNCCOCCOCCOCCOCCNCc4cccc(Nc5nnc(-c6ccccc6)o5)c4)c3)[nH]c12`, for which the result in the series on HepG2 [20] was Active. The Activity with HepG2 [24] stood at 87%.
In series [1], `CNc1cccc(CNCCO)c1` gave an IC50 of over 1000 nM. The outcome in the series on RKO [21], in the series on RKO [22] and in the series on RKO [23] was Active.
In turn, `Cc1c(-c2ccccc2)cccc1-c1nnc(Nc2cccc(CNCCOCCOCCNCc3cccc(Nc4nnc(-c5ccccc5)o4)c3)c2)o1` yielded an IC50 in series [1] of 30.6 nM.
With `Cc1c(-c2ccccc2)cccc1-c1nnc(Nc2cccc(CNCCOCCNCc3cccc(Nc4nnc(-c5cccc(-c6ccccc6)c5C)o4)c3)c2)o1`, in [1], the IC50 stood at 39.4 nM.
As to `Cc1c(-c2ccccc2)cccc1-c1nnc(Nc2cccc(CNCCOCCOCCOCCNCc3cccc(-c4nc5ccc(-c6ccccc6)c(C)c5[nH]4)c3)c2)o1`, in the series on HepG2 [20], the result was Active.
`Cc1c(-c2ccccc2)cccc1-c1nnc(Nc2cccc(CNCCOCCOCCOCCNCc3cccc(Nc4nnc(-c5cccc(-c6ccccc6)c5C)o4)c3)c2)o1`: the IC50 in [1] is 24.6 nM. In the series on RKO [25], the outcome was Active. In addition, in the series with RKO [2], the Activity entry is “Dose-dependent-effect”.
As to `Cc1c(-c2ccccc2)cccc1-c1nnc(Nc2cccc(CNCCOCCOCCOCCNCc3cccc(Nc4nnc(-c5ccccc5)o4)c3)c2)o1`, in [1], half-maximal inhibition (IC50) was put at 28.4 nM. Also, the Activity result in the series on RKO [2] was “Dose-dependent-effect”; in the series with RKO [3] it was 90%; in the series with RKO [28], 72%; with RKO [4], 44%; in the series on RKO [5], 4%. The outcome with RKO [26] and in the series on RKO [27] was Active.
Consider `Cc1c(-c2ccccc2)ccc2nc(-c3cccc(CNCCOCCOCCOCCNCc4cccc(Nc5nnc(-c6ccccc6)o5)c4)c3)[nH]c12`, for which, in the series with HepG2 [20], the outcome was Active. In addition, the Activity with HepG2 [24] stood at 89%.

For the origin of these results see ChEMBL document CHEMBL6083257, “Discovery of small molecules for autophagy-lysosome degradation of immune checkpoint proteins” (Eur J Med Chem, 2024).
